Reference: publication PMC9857996, “Inhibition of Iron Release from Donkey Spleen Ferritin through Malt-Derived Protein Z–Ferulic Acid Interactions” (Foods, 2023)

Molecular target: T1, protein Z (PZ)
T1 construct: gene PAZ1; single band ~40 kDa; three Trp printed (Trp-150, Trp-186, Trp-257)
Assay: Trp fluorescence quenching titration
Assay type: binding, Hordeum vulgare
Details: 50.0 mM sodium citrate pH 4.2, 25 °C; 1.0 μM PZ; n = 22.11 ± 2.13 sites per PZ; read-out: K

COc1cc(/C=C/C(=O)O)ccc1O [ferulic acid]
Kd: 2000 nM
